Values joined by “and” are separate entries in the source; they are usually repeats but may differ in a detail not shown here. Equal entries are not always repeated. Marks after values point to notes of the source that are not given here.

Results on 5 compounds are retold here after publication PMC12391581 (Antiviral Research, 2025).

Assay [1] deals with A(H3N2) viruses. It is filed as cell-based, influenza A(H3N2) virus.
Assay [2] has as its system A(H3N2) viruses. Type of assay: cell-based, influenza A(H3N2) virus. This is another data set of the same source.
The next assay has as its system A(H1N1)pdm09 viruses. It is filed as cell-based, influenza A(H1N1)pdm09 virus.
Assay [3] concerns neuraminidase (NA) of A(H3N2) viruses. It is filed as biochemical, influenza A(H3N2) virus.
The test system of assay [4] is neuraminidase (NA) of B/Victoria-lineage viruses. It is filed as biochemical, influenza B/Victoria-lineage virus.
Assay [5] deals with neuraminidase (NA) of A(H1N1)pdm09 viruses. Type of assay: biochemical, influenza A(H1N1)pdm09 virus.

As for `COC(=O)OCOc1c2n(ccc1=O)N([C@@H]1c3ccccc3SCc3c1ccc(F)c3F)[C@@H]1COCCN1C2=O` [Baloxavir, baloxavir marboxil], the “IRINA fold-change compared to PA-sequence matched virus” value with A(H3N2) viruses [1] stood at 4.8 fold. Moreover, the “HINT fold-change compared to PA-sequence matched virus” value in the assay on A(H3N2) viruses [2] is recorded as 4.4 fold. Further, in the assay on A(H1N1)pdm09 viruses, the “EC50 fold-change compared to reference median EC50 values” was 2.72 fold and 2.72 ^e fold; the “Fold change in EC50” value was 2.72^d fold; the baloxavir susceptibility phenotype result is reported as “RS (key: RS to baloxavir is provisionally defined as >3-fold change in EC50 of a test virus compared to the subtype/lineage-specific median EC50 values)”.

Consider `CCOC(=O)C1=C[C@@H](OC(CC)CC)[C@H](NC(C)=O)[C@@H](N)C1` [Oseltamivir, oseltamivir], for which, in assay [3], the “Fold-change in IC50” value worked out at 1.86 fold and the “IC50 fold-change compared to reference median IC50 values” amounted to 1.86 fold.

Regarding `[H]/N=C(\N)N[C@H]1C=C(C(=O)O)O[C@@H]([C@H](OC)[C@H](O)CO)[C@@H]1NC(C)=O` [Laninamivir, laninamivir], in assay [4], the “Fold-change in IC50” value turned out to be 0.91 fold and the “IC50 fold-change compared to reference median IC50 values” is listed as 0.91 fold.

Regarding `CC(=O)N[C@H]1[C@H]([C@H](O)[C@H](O)CO)OC(C(=O)O)=C[C@@H]1N=C(N)N` [Zanamivir, zanamivir], in assay [3], the “Fold-change in IC50” value is 10.16 fold, the “IC50 fold-change compared to reference median IC50 values” stood at 10.16 fold and the “NAI inhibition phenotype (NI/RI/HRI)” value is given as “RI (key: normal inhibition (NI) is a <10-fold increase in the NAI IC50; RI is a 10- to 100-fold increase; HRI is a >100-fold increase)”. In addition, in assay [4], the “IC50 fold-change (borderline RI)” value is on record as 5.76- to 6.25 fold.

Take `CCC(CC)[C@H](NC(C)=O)[C@@H]1[C@H](O)[C@@H](C(=O)O)C[C@H]1N=C(N)N` [Peramivir, peramivir]: in assay [5], the “NAI inhibition phenotype (NI/RI/HRI)” value is “HRI (key: normal inhibition (NI) is a <10-fold increase in the NAI IC50; RI is a 10- to 100-fold increase; HRI is a >100-fold increase)”. In assay [4], the “Fold-change in IC50” value was 158 fold, the “IC50 fold-change compared to reference median IC50 values” is 158 fold and the “NAI inhibition phenotype (NI/RI/HRI)” value is listed as “HRI (key: normal inhibition (NI) is a <5-fold increase in the NAI IC50; RI is a 5- to 50-fold increase; HRI is a >50-fold increase)”.
